The source of these data is ChEMBL document CHEMBL6153138, “Discovery of Novel Aromatic Urea-Imidazole Salt Derivatives for Cancer Therapy via Targeting ERK1/2” (J Med Chem, 2025).

Experiment [1] relates to MCF-10A. The experiment can be described thus: Antiproliferative activity against human MCF-10A cells incubated for 48 hrs by CCK-8 method. It is filed as functional, cell-based. (Tetrazolium dyes change colour on reduction, which living cells bring about.)
Experiment [2] deals with MDA-MB-468. The experiment in a line: Antiproliferative activity against human MDA-MB-468 cells incubated for 48 hrs by CCK-8 method. It is filed as functional, cell-based. The settings on record: MDA-MB-468, 48 h.
The subject of experiment [3] is MCF7. The experiment in a line: Antiproliferative activity against human MCF7 cells incubated for 48 hrs by CCK-8 method. It is filed as functional, cell-based. The settings on record: MCF7, 48 h.
Experiment [4] deals with 4T1. The experiment can be described thus: Antiproliferative activity against mouse 4T1 cells incubated for 48 hrs by CCK-8 method. The format is functional, cell-based. The settings on record: 4T1, 48 h.
The test system of experiment [5] is HCC1937. The experiment in a line: Antiproliferative activity against human HCC1937 cells incubated for 48 hrs by CCK-8 method. It is filed as functional, cell-based. The settings on record: HCC1937, 48 h.
The target of experiment [6] is Mitogen-activated protein kinase 1 (Homo sapiens, UniProt P28482). The experiment can be described thus: Inhibition of ERK2 (unknown origin) incubated for 60 mins by luminescence based ADP-Glo kinase assay. A general note: ADP-Glo turns the ADP formed in a reaction into a luminescent signal.
Chain of Mitogen-activated protein kinase 1 (P28482 whole entry): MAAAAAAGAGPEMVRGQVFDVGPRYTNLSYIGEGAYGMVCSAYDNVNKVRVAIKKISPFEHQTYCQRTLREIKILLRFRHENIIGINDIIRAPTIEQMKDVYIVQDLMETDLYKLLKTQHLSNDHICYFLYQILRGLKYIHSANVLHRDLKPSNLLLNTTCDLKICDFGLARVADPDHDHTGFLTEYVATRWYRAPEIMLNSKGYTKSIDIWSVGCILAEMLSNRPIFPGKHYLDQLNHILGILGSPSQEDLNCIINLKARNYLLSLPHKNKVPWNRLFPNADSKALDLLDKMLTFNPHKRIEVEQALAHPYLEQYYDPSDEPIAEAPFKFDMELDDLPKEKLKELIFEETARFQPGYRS

Regarding `O=C(Nc1cc(C(F)(F)F)cc(C(F)(F)F)c1)N[C@@H](Cc1ccccc1)Cn1c[n+](Cc2cccc(OCc3ccccc3)c2)c2ccccc21`, the IC50 in experiment [1] was more than 10 µM; in experiment [2], 1640 nM; in experiment [3], 3200 nM; in experiment [4] it was 6.89 µM; in experiment [5] it was 3180 nM; in experiment [6] it was 280 nM.

As to `O=C(Nc1cc(C(F)(F)F)cc(C(F)(F)F)c1)N[C@@H](Cc1ccccc1)Cn1c[n+](C/C=C/c2ccccc2)c2ccccc21`, the IC50 is more than 10 µM in experiment [1]; 2440 nM in experiment [2]; 1530 nM in experiment [3]; 5.63 µM in experiment [4]; 2410 nM in experiment [5]; 237 nM in experiment [6].

As for `O=C(Nc1cc(C(F)(F)F)cc(C(F)(F)F)c1)N[C@@H](Cc1ccccc1)Cn1c[n+](Cc2cccc(C(F)(F)F)c2)c2ccccc21`, the IC50 in experiment [1] is more than 10 µM; in experiment [2], 2340 nM; in experiment [3] it was 1860 nM; in experiment [4], 7.03 µM; in experiment [5] it was 3480 nM; in experiment [6], 185 nM.

As for `O=C(Nc1cc(C(F)(F)F)cc(C(F)(F)F)c1)N[C@@H](Cc1ccccc1)Cn1c[n+](Cc2cccc(Br)c2)c2ccccc21`, the IC50 in experiment [1] came out at 8.96 µM; in experiment [2] it was 1580 nM; in experiment [3], 1800 nM; in experiment [4] it was 2.31 µM; in experiment [5], 1690 nM; in experiment [6], 170 nM.

On to `O=C(Nc1ccc(Cl)c(C(F)(F)F)c1)N[C@@H](Cc1ccccc1)Cn1c[n+](Cc2ccc3ccccc3c2)c2ccccc21`, for which the 50% inhibitory concentration (IC50) in experiment [1] is more than 10 µM; in experiment [2], 1290 nM; in experiment [3], 1590 nM; in experiment [4], more than 10 µM; in experiment [5], 2550 nM; in experiment [6], 244 nM.

As for `C=CC[n+]1cn(C[C@H](Cc2ccccc2)NC(=O)Nc2cc(C(F)(F)F)cc(C(F)(F)F)c2)c2ccccc21`, the half-inhibitory concentration (IC50) was more than 10 µM in experiment [1]; more than 10000 nM in experiment [2]; more than 10000 nM in experiment [3]; more than 10 µM in experiment [4]; more than 10000 nM in experiment [5]; more than 10000 nM in experiment [6].

Consider `O=C(Nc1ccc(F)cc1)N[C@@H](Cc1ccccc1)Cn1c[n+](Cc2ccc3ccccc3c2)c2ccccc21`, for which the IC50 in experiment [1] was 8.75 µM; in experiment [2] it was 2800 nM; in experiment [3], 1980 nM; in experiment [4], 8.44 µM; in experiment [5], 3200 nM; in experiment [6], 394 nM.

In the case of `O=C(Nc1ccc(Cl)cc1)N[C@@H](Cc1ccccc1)Cn1c[n+](Cc2ccc3ccccc3c2)c2ccccc21`, the IC50 in experiment [1] is more than 10 µM; in experiment [2] it was 3020 nM; in experiment [3], 2420 nM; in experiment [4] it was 7.2 µM; in experiment [5], 1710 nM; in experiment [6] it was 248 nM.

With `CC[n+]1cn(C[C@H](Cc2ccccc2)NC(=O)Nc2cc(C(F)(F)F)cc(C(F)(F)F)c2)c2ccccc21`, the IC50 in experiment [1] was more than 10 µM; in experiment [2], more than 10000 nM; in experiment [3], more than 10000 nM; in experiment [4] it was more than 10 µM; in experiment [5] it was more than 10000 nM; in experiment [6], more than 10000 nM.

Regarding `O=C(Nc1ccc(Cl)c(Cl)c1)N[C@@H](Cc1ccccc1)Cn1c[n+](Cc2ccc3ccccc3c2)c2ccccc21`, the IC50 in experiment [1] came to 9.72 µM; in experiment [2], 2450 nM; in experiment [3] it was 1550 nM; in experiment [4], 6.77 µM; in experiment [5] it was 3370 nM; in experiment [6] it was 215 nM.

`O=C(Nc1cc(C(F)(F)F)cc(C(F)(F)F)c1)N[C@@H](Cc1ccccc1)Cn1c[n+](Cc2ccc(Cl)cc2)c2ccccc21`: the IC50 in experiment [1] came to 9.78 µM; in experiment [2] it was 1810 nM; in experiment [3] it was 1910 nM; in experiment [4], 4.59 µM; in experiment [5], 4530 nM; in experiment [6], 319 nM.

With `Cc1ccccc1C[n+]1cn(C[C@H](Cc2ccccc2)NC(=O)Nc2cc(C(F)(F)F)cc(C(F)(F)F)c2)c2ccccc21`, the IC50 was more than 10 µM in experiment [1]; 1910 nM in experiment [2]; 2770 nM in experiment [3]; 4.83 µM in experiment [4]; 2750 nM in experiment [5]; 123 nM in experiment [6].

With `N#Cc1cccc(C[n+]2cn(C[C@H](Cc3ccccc3)NC(=O)Nc3cc(C(F)(F)F)cc(C(F)(F)F)c3)c3ccccc32)c1`, the IC50 in experiment [1] is more than 10 µM; in experiment [2] it was 5290 nM; in experiment [3] it was 3360 nM; in experiment [4], more than 10 µM; in experiment [5], 5960 nM; in experiment [6], 335 nM.

For the compound `O=C(Nc1cc(C(F)(F)F)cc(C(F)(F)F)c1)N[C@@H](Cc1ccccc1)Cn1c[n+](Cc2c(Cl)cccc2Cl)c2ccccc21`, the IC50 in experiment [1] was more than 10 µM; in experiment [2], 3450 nM; in experiment [3], 3150 nM; in experiment [4], 5.53 µM; in experiment [5] it was 2150 nM; in experiment [6], 195 nM.

`COc1cccc(C[n+]2cn(C[C@H](Cc3ccccc3)NC(=O)Nc3cc(C(F)(F)F)cc(C(F)(F)F)c3)c3ccccc32)c1`: the IC50 in experiment [1] was more than 10 µM; in experiment [2], 1570 nM; in experiment [3] it was 1320 nM; in experiment [4], 3.54 µM; in experiment [5], 3680 nM; in experiment [6], 247 nM.

As for `O=C(Nc1cc(C(F)(F)F)cc(C(F)(F)F)c1)N[C@@H](Cc1ccccc1)Cn1c[n+](Cc2ccccc2F)c2ccccc21`, the IC50 amounted to 8.38 µM in experiment [1]; 1820 nM in experiment [2]; 2090 nM in experiment [3]; 3.13 µM in experiment [4]; 1770 nM in experiment [5]; 217 nM in experiment [6].

Turning to `O=C(Nc1cc(C(F)(F)F)cc(C(F)(F)F)c1)N[C@@H](Cc1ccccc1)Cn1c[n+](Cc2cc(Cl)ccc2Cl)c2ccccc21`, the IC50 in experiment [1] is more than 10 µM; in experiment [2] it was 2620 nM; in experiment [3], 3250 nM; in experiment [4] it was 6.78 µM; in experiment [5], 2050 nM; in experiment [6] it was 193 nM.

Consider `O=C(Nc1cc(C(F)(F)F)cc(C(F)(F)F)c1)N[C@@H](Cc1ccccc1)Cn1c[n+](Cc2ccc(Cl)cc2Cl)c2ccccc21`, for which the IC50 was more than 10 µM in experiment [1]; 2150 nM in experiment [2]; 1700 nM in experiment [3]; 4.63 µM in experiment [4]; 1540 nM in experiment [5]; 198 nM in experiment [6].

For `O=C(Nc1cc(C(F)(F)F)cc(C(F)(F)F)c1)N[C@@H](Cc1ccccc1)Cn1c[n+](Cc2ccc(C(F)(F)F)cc2)c2ccccc21`, the IC50 in experiment [1] is 8.12 µM; in experiment [2], 2500 nM; in experiment [3], 1610 nM; in experiment [4], 5.63 µM; in experiment [5], 2680 nM; in experiment [6], 223 nM.

As to `O=C(Nc1cc(C(F)(F)F)cc(C(F)(F)F)c1)N[C@@H](Cc1ccccc1)Cn1c[n+](Cc2ccc(F)cc2)c2ccccc21`, the IC50 in experiment [1] was more than 10 µM; in experiment [2] it was 3220 nM; in experiment [3], 2840 nM; in experiment [4], 9.67 µM; in experiment [5], 4200 nM; in experiment [6], 294 nM.

With `O=C(Nc1cc(C(F)(F)F)cc(C(F)(F)F)c1)N[C@@H](Cc1ccccc1)Cn1c[n+](Cc2ccc3cccnc3c2)c2ccccc21`, the half-maximal inhibitory concentration (IC50) worked out at 8.22 µM in experiment [1]; 1810 nM in experiment [2]; 1790 nM in experiment [3]; 5.29 µM in experiment [4]; 1130 nM in experiment [5]; 370 nM in experiment [6].

As a reminder, the IC50 is the concentration at which inhibition is half-maximal.
